Test results from patent US7067500B2, “Betaines as adjuvants to susceptibility testing and antimicrobial therapy” (priority 1997, dated 2006).
“Also recorded” adds a separate entry of the source. Counter-ions that a name gives are not always drawn.

Tests used:
[1] = system: M. tuberculosis isolate 571/573-BAL; experiment: Detergent screen for induced susceptibility, BACTEC 12B growth curves; assay type: cell-based, Mycobacterium tuberculosis; details: for RESULT (effect on growth): 571/573-BAL, detergent approximately 17 μg/ml final, BACTEC 12B supplemented with PANTA or P/cax (ceftriaxone 8 μg/ml); for CB-18 effect in the methods of the invention: carboxybetaines tested
[2] = system: M. tuberculosis isolates ATCC 27294 and 571/573-BAL; experiment: Further studies of the range of activity of betaines; assay type: cell-based, Mycobacterium tuberculosis
Source text: FIGS. 32A and 32B show the variability when simple (i.e., unmodified) carboxybetaines with methylene (Detain PB and Velvetex OLB), ethylene (C18-carboxyethylbetaine), and propylene (CB-18) bridges were employed in this assay. This is consistent with the data of Tsubone K. et al., Jour. Pharm. Sci. 80:441–444 (1991) wherein toxicity is correlated with bridge length.
While the apparent bactericidal activity of the amine oxide was anticipated based on the use of these compounds in antimicrobial formulations (Michaels, E. B., U.S. Pat. No. 564,454 and U.S. Pat. No. 641,728), the activity of the Brij compounds and Crosultaine E-30 was surprising. […] Crosultaine E-30 has both an amidopropyl linkage and a hydroxypropyl bridge. […] Historically, the nonionic detergents have been reported to be contaminated with impurities, and only when purified stimulate growth (Dubos, R. J. et al., Jour. Exptl. Med. 83:409–423 (1946)). Impurities might explain the results with the Brij detergents and Crosultaine E-30.

[3] = system: M. tuberculosis isolates ATCC 27294 and 571/573-BAL; experiment: CB-18 vs. EDTA, BACTEC 12B growth curves; assay type: cell-based, Mycobacterium tuberculosis
[4] = system: M. tuberculosis isolates ATCC 27294 and 571/573-BAL; experiment: CB-18 and TMA-18 comparison, BACTEC 12B growth curves; assay type: cell-based, Mycobacterium tuberculosis
Procedure: If the mechanism of CB-18's action was similar to that of the quaternary salts (i.e., generally deleterious), then some delay would be anticipated. For example, if the CB-18 effect was a consequence of the surface active property of the detergent, then disruption of cellular function would not only have nonspecific long term consequences, but would also be independent of the isolate. In an effort to examine the similarity in the mechanism, CB-18 was assayed in parallel with trimethyloctadecylammonium bromide (TMA-18 (Aldrich, Milwaukee, Wis., Cat.# 35,924-6): made as a 100× stock in 1:1, water:isopropanol similar to that described for CB-18 in Example 1). The experimental design is outlined in FIG. 6.
In this experiment both ATCC 27294 and 571/573-BAL were cultivated on 7H11-selective media, and then serially diluted in NALC/citrate to 10,000×. The planting solution (i.e., the final dilution (50,000×)) was manufactured by diluting into either buffer, 0.5 mM CB-18, or 0.1 mM TMA-18 (all concentrations represent the final detergent concentration in the planting solution). […] The final concentration of CB-18 during incubation was approximately 17 μg/ml. The final concentration of TMA-18 during incubation was approximately 3.4 μg/ml. […] FIGS. 7A–7C show one experiment wherein ATCC 27294 cells were planted in the different solutions described above, and FIGS. 8A–8C show a parallel experiment wherein 571/573-BAL cells were planted in the same series.

[5] = system: M. fortuitum complex isolates ATCC 6841 and 495-JHH; experiment: CB-18 titration, BACTEC 12B growth curves; assay type: cell-based; details: M. fortuitum 495-JHH; cefoxitin (8 μg/ml in PANTA) without CB-18
[6] = system: M. tuberculosis isolate 571/573-BAL; experiment: Planting in lecithin at low inocula, BACTEC 12B growth curves; assay type: cell-based, Mycobacterium tuberculosis
Source text: In this experiment the 571/573-BAL isolate was cultivated on 7H11-selective media, serially diluted in NALC/citrate to approximately 1,000×. In an attempt to examine how the inoculum impacted the results of this assay three different stocks were manufactured, one series in buffer and one series in CB-18. […] The planting solutions were manufactured by mixing these three stocks 1:1 with either buffer or a buffered solution of lecithin (Sigma, St. Louis, Mo.; Cat.#: P 5394 (7.5% lecithin was made up as a 100× concentrate in 100% ethanol (3 grams in 40 mls) and diluted in the Tris buffer of Example 1 immediately prior to use)). The final dilutions of three different planting solutions were approximately 5000×, 25,000×, and 100,000×. The final concentration of CB-18 and lecithin in the appropriate planting solutions was approximately 0.5 mM. […] The final concentration of both lecithin and CB-18 during incubation was approximately 17 μg/ml.
Aliquots of the three stocks (i.e., 2,500×, 12,500× and 50,000×) were also taken for quantitative culture by plating on 7H10 plates (Becton Dickinson, Cockeysville, Md.). […] FIG. 5A presents the 5,000× series planted in either buffer or buffer containing lecithin, and FIG. 5B presents the 5,000× series planted in CB-18 or CB-18 combined with lecithin. FIG. 5C presents the 25,000× series planted in either buffer or buffer containing lecithin, and FIG. 5D presents the 25,000× series planted in CB-18 or CB-18 combined with lecithin. FIG. 5E presents the 100,000× series planted in either buffer or buffer containing lecithin, and FIG. 5F presents the 100,000× series planted in CB-18 or CB-18 combined with lecithin.

| Compound | RESULT (effect on growth) [1] | further results |
| --- | --- | --- |
| CCCCCCCCCCCCCCCCCC[N+](C)(C)Cc1ccccc1.[Cl-] [Benzyldimethyl-stearyl ammonium chloride, benzyldimethyl-stearyl ammonium chloride, reference compound] | Complete suppression of growth | – |
| CCCCCCCCCCCCCCCC[N+](C)(C)CC(O)CS(=O)(=O)[O-] (stereo not shown) [C16-hydroxypropyl-sulfobetaine] | Slight delay in growth | – |
| CCCCCCCCCCCCCCCCCC[N+](C)(C)CCC(=O)[O-] [C18-carboxyethylbetaine, N-(2-carboxyethyl)-N,N-dimethyl-1-octadecanaminium, inner salt] | strong ability to suppress growth when combined with antibiotics; also recorded: Complete suppression of growth | CB-18 effect in the methods of the invention [1]: show the CB-18 effect; range of activity ([2]; ATCC 27294): 7 to 13 µg/mL |
| CCCCCCCCCCCCCCCCCC[N+](C)(C)CCCCS(=O)(=O)[O-] [C18-sulfobutylbetaine] | Slight delay in growth | – |
| C[C@H](CCC(=O)NCCC[N+](C)(C)CCCS(=O)(=O)[O-])[C@H]1CC[C@H]2[C@@H]3[C@H](O)C[C@@H]4C[C@H](O)CC[C@]4(C)[C@H]3C[C@H](O)[C@]12C [CHAPS, reference compound] | No effect | – |
| CCCCCCCCCCCCCCCC[N+](C)(C)CC(=O)[O-] [DeTaine PB, cetyl-carboxymethylbetaine] | Strong suppression of growth | CB-18 effect in the methods of the invention [1]: show the CB-18 effect |
| C[C@H](CCC(=O)O)[C@H]1CC[C@H]2[C@@H]3CC[C@@H]4C[C@H](O)CC[C@]4(C)[C@H]3C[C@H](O)[C@]12C [Deoxycholic acid, deoxycholic acid, reference compound] | No effect | – |
| O=C(O)CN(CCN(CC(=O)O)CC(=O)O)CC(=O)O [EDTA] | – | effect on growth characteristics ([3]; ATCC 27294 and 571/573-BAL, EDTA approximately 17 μg/ml, R.F. or P/cax): no effect |
| [Cl-].[Cl-].[Mg+2] [MgCl2, reference compound] | – | effect on growth character in the presence of CB-18 ([3]; 571/573-BAL, five-fold molar excess of MgCl2 (85 μg/ml) added to CB-18 17 μg/ml, R.F.): no improvement; effect on the detrimental effects of the CB-18/P-cax combination ([3]; MgCl2 85 μg/ml added to CB-18 17 μg/ml with P-cax, both isolates, especially 571/573-BAL): alleviate, to some degree |
| CCCCCCCCCCCCCCCC(=O)O [Palmitic acid, palmitic acid, reference compound] | No effect | – |
| CCCCCCCCCCCCCCCCCC[N+](C)(C)CCCS(=O)(=O)[O-] [SB-18, N-octadecyl-N,N-dimethyl-3-ammonio-1-propane-sulfonate] | significant activity; also recorded: Modest suppression | range of activity ([2]; 571/573-BAL): 20 to 75 µg/mL |
| CCCCCCCCCCCCCCCCCC(=O)O [Stearic acid, stearic acid, reference compound] | No effect | – |
| CCCCCCCCCCCCCCCCCC[N+](C)(C)C.[Br-] [TMA-18, trimethyloctadecylammonium bromide, reference compound] | Complete suppression of growth | effect on growth ([4]; 571/573-BAL, 3.4 μg/ml TMA-18, R.F., PANTA or P/cax): significant delays were observed in all bottles; effect on growth ([4]; ATCC 27294, 3.4 μg/ml TMA-18, R.F., PANTA or P/cax): significant delays in all bottles; effect on growth ([4]; ATCC 27294 and 571/573-BAL, TMA-18 3.4 μg/ml (FIGS. 7C and 8C)): bacteriostatic in isolation; also recorded: inhibitory at low concentrations |
| CCCCCCCCCCCCCC[N+](C)(C)Cc1ccccc1.[Cl-] [benzyldimethyl-tetradecyl ammonium chloride, reference compound] | Complete suppression of growth | – |
| CO[C@@]1(NC(=O)Cc2cccs2)C(=O)N2C(C(=O)O)=C(COC(N)=O)CS[C@@H]21 [cefoxitin, reference compound] | – | effect on growth [5]: unaffected |
| C16-amidopropyl-sulfatobetaine | No effect | – |
| cetyl-(poyoxyethylene)10 [Brij 56, reference compound] | significantly suppress growth; also recorded: Very strong suppression of growth | – |
| erucamidopropyl hydroxypropyl sulfobetaine [Crosultaine E-30] | Strong suppression of growth | RESULT (effect on growth) ([1]; listed as Crosultaine E30): significantly suppress growth |
| oleyl-(poyoxyethylene)10 [Brij 97, reference compound] | significantly suppress growth; also recorded: Very strong suppression of growth | – |
| oleyl-carboxymethylbetaine [Velvetex OLB-50] | Very strong suppression of growth | CB-18 effect in the methods of the invention [1]: show the CB-18 effect |
| phosphatidylcholine [lecithin] | – | ability to overcome the detrimental effect of CB-18 ([6]; lecithin and CB-18 approximately 17 μg/ml each, CB-18 alone and in combination with antibiotics): able to overcome the detrimental effect of CB-18; ability to overcome the deleterious effect of the antibiotic formulation (P/caz) ([6]; lecithin approximately 17 μg/ml, absence of CB-18): ability to overcome, to some degree; impact on the sensitivity of the BACTEC 12B assay ([6]; lecithin approximately 17 μg/ml, no CB-18): little if any impact |
| stearylamidopropyl-carboxybetaine [Schercotaine IAB] | No effect | – |
